T/C data for 21 compounds are collected here from PubChem BioAssay AID330 (DTP/NCI, 2004).

This assay relates to P388 leukemia ip, CD2F1 mice, survival T/C. In words: NCI In Vivo Anticancer Drug Screen. Data for tumor model P388 Leukemia (intraperitoneal) in CD2F1 (CDF1) mice. The note with it: endpoint: median survival time, higher = longer survival. A digest of the protocol:
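Mice carrying the transplanted tumor received test compound or vehicle. Survival was recorded in each group, and the value is the treated-group measurement divided by that of the vehicle-treated control group.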

Setting [1] is: dose: 50.0 mg/kg/injection, schedule: Q01DX009 (ip), vehicle: saline.
Setting [2] is: dose: 100.0 mg/kg/injection, schedule: Q01DX009 (ip), vehicle: saline.
Where [3] appears, read: dose: 200.0 mg/kg/injection, schedule: Q01DX009 (ip), vehicle: saline.
The mark [4] stands for this setting: dose: 50.0 mg/kg/injection, schedule: Q01DX005 (ip), vehicle: saline with Tween-80.
Setting [5] is: dose: 200.0 mg/kg/injection, schedule: Q01DX005 (ip), vehicle: saline with Tween-80.
Where [6] appears, read: dose: 6.25 mg/kg/injection, schedule: Q01DX005 (ip), vehicle: saline with Tween-80.
Where [7] appears, read: dose: 12.5 mg/kg/injection, schedule: Q01DX005 (ip), vehicle: saline with Tween-80.
Where [8] appears, read: dose: 50.0 mg/kg/injection, schedule: Q01DX009 (ip), vehicle: saline with Tween-80.
The mark [9] stands for this setting: dose: 100.0 mg/kg/injection, schedule: Q01DX009 (ip), vehicle: saline with Tween-80.
Setting [10] is: dose: 200.0 mg/kg/injection, schedule: Q01DX009 (ip), vehicle: saline with Tween-80.
[11] abbreviates: dose: 100.0 mg/kg/injection, schedule: Q04DX003 (ip), vehicle: saline with Tween-80.
Setting [12] is: dose: 200.0 mg/kg/injection, schedule: Q04DX003 (ip), vehicle: saline with Tween-80.
The mark [13] stands for this setting: dose: 50.0 mg/kg/injection, schedule: Q01DX009 (ip), vehicle: Klucel (hydroxypropylcellulose) (HPC).
[14] abbreviates: dose: 100.0 mg/kg/injection, schedule: Q01DX009 (ip), vehicle: Klucel (hydroxypropylcellulose) (HPC).

SMILES strings stand for the structures. Values joined by “and” are separate entries in the source; they are usually repeats but may differ in a detail not shown here. Identical values can stand only once. Inconclusive results and toxic doses are left out.

As to `COc1ccc(C(O)C2CC(=O)NN=C2C)cc1OC` (stereo unspecified), the T/C (dose: 60.0 mg/kg/injection, schedule: Q01DX005 (ip), vehicle: saline with Tween-80) was 100 % of control; the T/C (dose: 120.0 mg/kg/injection, schedule: Q01DX005 (ip), vehicle: saline with Tween-80) is 100 % of control; the T/C (dose: 240.0 mg/kg/injection, schedule: Q01DX005 (ip), vehicle: saline with Tween-80) was 99 % of control.
In the case of `COc1ccccc1/C=C/C(=O)c1ccccc(=O)c1O`, the T/C runs as follows: (dose: 25.0 mg/kg/injection, schedule: Q01DX005 (ip), vehicle: Klucel (hydroxypropylcellulose) (HPC)) 101 % of control; (dose: 50.0 mg/kg/injection, schedule: Q01DX005 (ip), vehicle: Klucel (hydroxypropylcellulose) (HPC)) 104 % of control; (dose: 100.0 mg/kg/injection, schedule: Q01DX005 (ip), vehicle: Klucel (hydroxypropylcellulose) (HPC)) 100 % of control; (dose: 200.0 mg/kg/injection, schedule: Q01DX005 (ip), vehicle: Klucel (hydroxypropylcellulose) (HPC)) 109 % of control.
`CSc1nc(NN)c2cnn(C3CCCCO3)c2n1` (stereo unspecified): the T/C runs as follows: (dose: 100.0 mg/kg/injection, schedule: Q04DX002 (ip), vehicle: saline with Tween-80) 100 % of control; (dose: 200.0 mg/kg/injection, schedule: Q04DX002 (ip), vehicle: saline with Tween-80) 96 % of control; (dose: 400.0 mg/kg/injection, schedule: Q04DX002 (ip), vehicle: saline with Tween-80) 94 % of control.
`CS(=O)(=O)OC1CC(Cl)CO1` (stereo unspecified): the T/C is 100 % of control (dose: 100.0 mg/kg/injection, schedule: Q04DX003 (ip), vehicle: Klucel (hydroxypropylcellulose) (HPC)); 100 % of control (dose: 200.0 mg/kg/injection, schedule: Q04DX003 (ip), vehicle: Klucel (hydroxypropylcellulose) (HPC)); 103 % of control (dose: 400.0 mg/kg/injection, schedule: Q04DX003 (ip), vehicle: Klucel (hydroxypropylcellulose) (HPC)).
As to `CCOP(=O)(Nc1cc(C)ccc1C)OCC`, the T/C runs as follows: under setting [1], 100 % of control; (dose: 100.0 mg/kg/injection, schedule: Q01DX001 (ip), vehicle: saline with Tween-80) 105 % of control; under setting [2], 104 % of control; (dose: 200.0 mg/kg/injection, schedule: Q01DX001 (ip), vehicle: saline with Tween-80) 112 % of control; under setting [3], 106 % of control; (dose: 400.0 mg/kg/injection, schedule: Q01DX001 (ip), vehicle: saline with Tween-80) 109 % of control.
For `OCCC1CC2CCCCN2O1` (stereo unspecified), the T/C is 101 % of control (dose: 50.0 mg/kg/injection, schedule: Q04DX003 (ip), vehicle: saline); 103 % of control (dose: 100.0 mg/kg/injection, schedule: Q04DX003 (ip), vehicle: saline); 102 % of control (dose: 200.0 mg/kg/injection, schedule: Q04DX003 (ip), vehicle: saline).
Turning to `COc1ccc(N2CCCSC2=S)cc1`, the T/C was 101 % of control (dose: 50.0 mg/kg/injection, schedule: Q01DX005 (ip), vehicle: saline + Tween-80 + alcohol); 101 % of control (dose: 100.0 mg/kg/injection, schedule: Q01DX005 (ip), vehicle: saline + Tween-80 + alcohol); 100 % of control (dose: 200.0 mg/kg/injection, schedule: Q01DX005 (ip), vehicle: saline + Tween-80 + alcohol).
Take `O=S(=O)(CBr)OCCCl`: the T/C under setting [4] is 120 % of control; the T/C (dose: 150.0 mg/kg/injection, schedule: Q01DX005 (ip), vehicle: saline with Tween-80) is 159 % of control; the T/C under setting [5] was 200 % of control.
Turning to `C=C(Br)S(=O)(=O)OCCCl`, the T/C was 105 % of control under setting [6] and 104 % of control under setting [7].
On to `CCOC(=O)c1sc2nc(CN3CCOCC3)[nH]c(=O)c2c1C`, for which the T/C under setting [4] is 94 % of control; the T/C (dose: 100.0 mg/kg/injection, schedule: Q01DX005 (ip), vehicle: saline with Tween-80) was 98 % of control; the T/C under setting [5] was 98 % of control.
As for `CN(C)c1ccc(-c2nc(=O)[nH]c(=O)s2)cc1`, the T/C is 102 % of control under setting [8], 100 % of control under setting [9] and 98 % of control under setting [10].
As for `C/C(=C\COc1ccc2ccc(=O)oc2c1)C1=CC(=O)C(C)(C)O1`, the T/C runs as follows: (dose: 266.0 mg/kg/injection, schedule: Q01DX009 (ip), vehicle: saline with Tween-80) 115 % of control; (dose: 400.0 mg/kg/injection, schedule: Q01DX009 (ip), vehicle: saline with Tween-80) 114 % of control; (dose: 600.0 mg/kg/injection, schedule: Q01DX009 (ip), vehicle: saline with Tween-80) 123 % of control.
`c1ccc(P2(c3ccccc3)(c3ccccc3)OCC3CC32)cc1` (stereo unspecified): the T/C runs as follows: (dose: 3.13 mg/kg/injection, schedule: Q01DX009 (ip), vehicle: saline with Tween-80) 103 % of control; (dose: 3.13 mg/kg/injection, schedule: Q01DX009 (ip), vehicle: saline) 94 % of control; (dose: 6.25 mg/kg/injection, schedule: Q01DX009 (ip), vehicle: saline with Tween-80) 106 % of control; (dose: 6.25 mg/kg/injection, schedule: Q01DX009 (ip), vehicle: saline) 98 % of control; (dose: 12.5 mg/kg/injection, schedule: Q01DX009 (ip), vehicle: saline with Tween-80) 103 % of control and 124 % of control; (dose: 12.5 mg/kg/injection, schedule: Q01DX009 (ip), vehicle: saline) 95 % of control. The T/C (dose: 25.0 mg/kg/injection, schedule: Q01DX009 (ip), vehicle: saline with Tween-80) is 100 % of control and 111 % of control; the T/C (dose: 25.0 mg/kg/injection, schedule: Q01DX009 (ip), vehicle: saline) was 100 % of control; the T/C (dose: 50.0 mg/kg/injection, schedule: Q01DX009 (ip), vehicle: olive oil, sesame oil, peanut oil) is 95 % of control; the T/C under setting [8] was 102 % of control.
Consider `CCn1nccc1N`, for which the T/C under setting [6] was 98 % of control; the T/C under setting [7] was 106 % of control; the T/C (dose: 25.0 mg/kg/injection, schedule: Q01DX005 (ip), vehicle: saline with Tween-80) is 104 % of control.
As to `CCO/C=C1\SC(=S)N(c2ccccc2OC)C1=O`, the T/C reads like this: (dose: 88.0 mg/kg/injection, schedule: Q01DX009 (ip), vehicle: saline with Tween-80) 118 % of control; under setting [11], 104 % of control; (dose: 132.0 mg/kg/injection, schedule: Q01DX009 (ip), vehicle: saline with Tween-80) 119 % of control; (dose: 178.0 mg/kg/injection, schedule: Q04DX003 (ip), vehicle: saline with Tween-80) 118 % of control; under setting [10], 112 % of control; under setting [12], 109 % of control. In addition, the T/C is 118 % of control (dose: 266.0 mg/kg/injection, schedule: Q04DX003 (ip), vehicle: saline with Tween-80) and 122 % of control (dose: 400.0 mg/kg/injection, schedule: Q04DX003 (ip), vehicle: saline with Tween-80).
Regarding `CC(=O)OCN(C)C=O`, the T/C by setting is: (dose: 125.0 mg/kg/injection, schedule: Q01DX005 (ip), vehicle: water) 96 % of control; (dose: 250.0 mg/kg/injection, schedule: Q01DX005 (ip), vehicle: water) 91 % of control; (dose: 500.0 mg/kg/injection, schedule: Q01DX005 (ip), vehicle: water) 98 % of control.
As for `Cc1ccc(NC(=O)Oc2cc(C)c(C)cc2Cl)c([N+](=O)[O-])c1`, the T/C is 107 % of control under setting [8], 104 % of control under setting [9] and 112 % of control under setting [10].
Consider `ClC=P(c1ccccc1)(c1ccccc1)c1ccccc1`, for which the T/C was 104 % of control (dose: 50.0 mg/kg/injection, schedule: Q04DX003 (ip), vehicle: saline with Tween-80); 109 % of control under setting [11]; 104 % of control under setting [12].
Take `ClC(Cl)(Cl)C1[O][Sb]([c]2ccccc2)([c]2ccccc2)([c]2ccccc2)[O]1` (stereo unspecified): the T/C under setting [13] is 90 % of control and the T/C under setting [14] was 101 % of control.
Consider `NC(C(=O)O)C(C(F)(F)F)C(F)(F)F` (stereo unspecified), for which the T/C was 101 % of control under setting [1], 102 % of control under setting [2] and 114 % of control under setting [3].
In the case of `CN(C)CCOC1=Nc2ccccc2O/C1=C/c1ccccc1`, the T/C by setting is: under setting [13], 100 % of control; under setting [14], 111 % of control.
